IC50 data for 31 molecules are collected here from patent US20230295212A1 (ROME Therapeutics, Inc., priority 2022, published 2023).

SMILES strings stand for the structures.

For one assay, the target named is T1, LINE1 reverse transcriptase (Homo sapiens, UniProt O00370).
T1 construct: expressed in transfected cells; host or cells: HeLa Tet-On 3G (Takara, cat no 631183)
T1 sequence (O00370 whole entry, looked up): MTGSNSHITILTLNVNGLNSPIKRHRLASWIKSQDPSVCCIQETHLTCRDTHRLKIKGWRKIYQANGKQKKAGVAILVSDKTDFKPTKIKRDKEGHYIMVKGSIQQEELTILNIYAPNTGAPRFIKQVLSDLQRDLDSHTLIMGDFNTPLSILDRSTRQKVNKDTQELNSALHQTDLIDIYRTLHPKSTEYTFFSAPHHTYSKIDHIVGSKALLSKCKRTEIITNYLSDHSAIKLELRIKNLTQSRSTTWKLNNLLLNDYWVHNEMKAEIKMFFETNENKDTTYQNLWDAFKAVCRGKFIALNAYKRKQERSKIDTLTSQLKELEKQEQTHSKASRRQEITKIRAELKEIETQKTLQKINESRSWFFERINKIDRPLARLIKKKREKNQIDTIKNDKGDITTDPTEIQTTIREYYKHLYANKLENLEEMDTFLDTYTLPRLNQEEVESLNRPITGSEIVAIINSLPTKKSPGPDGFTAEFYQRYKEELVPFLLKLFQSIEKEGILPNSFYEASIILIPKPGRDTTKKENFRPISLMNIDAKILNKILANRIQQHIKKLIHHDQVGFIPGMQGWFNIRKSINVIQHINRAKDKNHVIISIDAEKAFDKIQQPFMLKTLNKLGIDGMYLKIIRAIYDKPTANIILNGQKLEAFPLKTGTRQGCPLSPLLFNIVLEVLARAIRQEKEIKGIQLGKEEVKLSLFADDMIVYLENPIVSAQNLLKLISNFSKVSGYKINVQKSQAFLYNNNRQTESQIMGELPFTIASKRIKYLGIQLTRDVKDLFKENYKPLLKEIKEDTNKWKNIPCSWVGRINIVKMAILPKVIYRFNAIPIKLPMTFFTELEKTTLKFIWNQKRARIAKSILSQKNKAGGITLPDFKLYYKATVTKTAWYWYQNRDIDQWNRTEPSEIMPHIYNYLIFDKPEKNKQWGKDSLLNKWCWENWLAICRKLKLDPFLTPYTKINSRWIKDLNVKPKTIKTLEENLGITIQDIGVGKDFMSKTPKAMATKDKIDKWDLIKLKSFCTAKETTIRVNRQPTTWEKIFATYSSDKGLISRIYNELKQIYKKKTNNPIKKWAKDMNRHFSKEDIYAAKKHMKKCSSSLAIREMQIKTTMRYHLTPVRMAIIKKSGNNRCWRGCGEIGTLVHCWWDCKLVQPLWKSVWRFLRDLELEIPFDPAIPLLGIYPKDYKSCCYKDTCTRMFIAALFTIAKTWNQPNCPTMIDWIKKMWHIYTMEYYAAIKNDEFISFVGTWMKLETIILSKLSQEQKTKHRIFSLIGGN
The assay is described as follows: Stable artificial-intron Cis LINE1 reporter assay (HeLa Tet-On 3G, Firefly luciferase). Format: cell-based. Particulars: HeLa L1 artificial-intron reporter cells, doxycycline 500 ng/mL, 72 h, class symbols. The procedure:
Exemplary compounds, were tested for the ability to inhibit LINE1 reverse transcriptase using a stable artificial-intron Cis LINE1 reporter assay. Assay procedures and results are described below.
A stable HeLa Tet-On 3G (Takara, cat no 631183) cell line expressing a bi-directional inducible LINE1 construct was generated as described in Xie, Y. et al. “Cell division promotes efficient retrotransposition in a stable L1 reporter cell line,” Mobile DNA (2013) 4:10. Single cell clones were screened for high Luciferase expression and the highest expression Firefly expressing clone was chosen for compound testing.
Test compounds were serially diluted in DMSO and spotted in 96-well plates. Subsequently, the HeLa Li artificial-intron reporter cells were plated into the compound-containing wells (8,000 cells/well), and the cells were induced for reporter expression with doxycycline (Sigma-Aldrich cat #D9891) at a final concentration of 500 ng/mL. Luminescence was measured 72 h after plating using the Dual-Glo Luciferase Assay System (Promega cat #E2940) following the manufacturer's instructions. The Firefly Luciferase activity was used to report LINE1 activity.
For orientation: A reporter such as luciferase makes a cellular process visible.
Take `Nc1nc(=O)n([C@@H]2O[C@@](CO)(CF)[C@@H](O)[C@@H]2O)cc1F` [Compound 72, 4-amino-5-fluoro-1-((2R,3S,4S,5R)-5-(fluoromethyl)-3,4-dihydroxy-5-(hydroxymethyl)tetrahydrofuran-2-yl)pyrimidin-2(1H)-one]: the IC50 – broadly, the concentration that inhibits the measured activity by half – lay within 250 to 1000 nM.
Still for that read-out and setting: in the case of `Nc1nc(=O)n([C@@H]2O[C@@](CO)(CCl)[C@@H](O)[C@@H]2O)cc1F` [Compound 73, 4-amino-1-((2R,3S,4S,5R)-5-(chloromethyl)-3,4-dihydroxy-5-(hydroxymethyl)tetrahydrofuran-2-yl)-5-fluoropyrimidin-2(1H)-one] it was ≤ 50 nM; in that of `C=C[C@]1(CO)O[C@@H](n2cc(F)c(N)nc2=O)C[C@@H]1O` [Compound 74, 4-amino-5-fluoro-1-((2R,4S,5R)-4-hydroxy-5-(hydroxymethyl)-5-vinyltetrahydrofuran-2-yl)pyrimidin-2(1H)-one], ≤ 50 nM; in that of `C=C[C@]1(CO)O[C@@H](n2cc(F)c(N)nc2=O)[C@@H](O)[C@@H]1O` [Compound 75, 4-amino-1-((2R,3S,4S,5R)-3,4-dihydroxy-5-(hydroxymethyl)-5-vinyltetrahydrofuran-2-yl)-5-fluoropyrimidin-2(1H)-one], 100 to 250 nM.
The same measure, in the same setting: under `C=C[C@]1(CO)O[C@@H](n2cc(F)c(N)nc2=O)[C@@H](F)[C@@H]1O` [Compound 76, 4-amino-1-[(2R,3S,4R,5R)-5-ethenyl-3-fluoro-4-hydroxy-5-(hydroxymethyl)oxolan-2-yl]-5-fluoropyrimidin-2-one] stands ≤ 50 nM; under `CC[C@]1(CO)O[C@@H](n2cc(F)c(N)nc2=O)[C@@H](F)[C@@H]1O` [Compound 77, 4-amino-1-[(2R,3S,4R,5R)-5-ethyl-3-fluoro-4-hydroxy-5-(hydroxymethyl)oxolan-2-yl]-5-fluoropyrimidin-2-one], ≤ 50 nM.
The molecule `CC[C@]1(CO)O[C@@H](n2cc(F)c(N)nc2=O)[C@@H](O)[C@@H]1O` [Compound 78, 4-amino-1-((2R,3S,4S,5R)-5-ethyl-3,4-dihydroxy-5-(hydroxymethyl)tetrahydrofuran-2-yl)-5-fluoropyrimidin-2(1H)-one] showed an IC50 of 50 to 100 nM.
Molecule `C=C[C@]1(CO)O[C@@H](n2cnc3c(N)nc(F)nc32)[C@@H](F)[C@@H]1O` [Compound 80, (2R,3R,4S,5R)-5-(6-amino-2-fluoropurin-9-yl)-2-ethenyl-4-fluoro-2-(hydroxymethyl)oxolan-3-ol] registered an IC50 of 100 to 250 nM.
In the case of `CC[C@]1(CO)O[C@@H](n2cnc3c(N)nc(F)nc32)[C@@H](F)[C@@H]1O` [Compound 81, (2R,3R,4S,5R)-5-(6-amino-2-fluoropurin-9-yl)-2-ethyl-4-fluoro-2-(hydroxymethyl)oxolan-3-ol], the IC50 is 100 to 250 nM.
Same read-out and setting: under `CC[C@]1(CO)O[C@@H](n2cc(F)c(N)nc2=O)C[C@@H]1O` [Compound 82, 4-amino-1-((2R,4S,5R)-5-ethyl-4-hydroxy-5-(hydroxymethyl)tetrahydrofuran-2-yl)-5-fluoropyrimidin-2(1H)-one] stands ≤ 50 nM; under `Nc1nc2c(ncn2[C@@H]2O[C@@](CO)(CF)[C@@H](O)[C@@H]2F)c(=O)[nH]1` [Compound 83, 2-amino-9-((2R,3S,4R,5R)-3-fluoro-5-(fluoromethyl)-4-hydroxy-5-(hydroxymethyl)tetrahydrofuran-2-yl)-1,9-dihydro-6H-purin-6-one], > 1000 nM.
The same measure, in the same setting: in the case of `Nc1nc(F)nc2c1ncn2[C@@H]1O[C@@](CO)(CF)[C@@H](O)[C@@H]1F` [Compound 84] it was > 1000 nM; in that of `Nc1nc(=O)n([C@@H]2O[C@@](CO)(CF)[C@@H](O)[C@@H]2F)cc1F` [Compound 85, 4-amino-5-fluoro-1-[(2R,3S,4R,5R)-3-fluoro-5-(fluoromethyl)-4-hydroxy-5-(hydroxymethyl)oxolan-2-yl] pyrimidin-2-one], 50 to 100 nM.
On the same count and under the same terms, in the case of `Nc1nc(=O)n([C@@H]2O[C@@](CO)(CBr)[C@@H](O)[C@@H]2F)cc1F` [Compound 86, 4-amino-1-[(2R,3S,4R,5R)-5-(bromomethyl)-3-fluoro-4-hydroxy-5-(hydroxymethyl)oxolan-2-yl]-5-fluoropyrimidin-2-one] it was ≤ 50 nM; in that of `Nc1nc(=O)n([C@H]2C[C@H](O)[C@](CO)(CBr)O2)cc1F` [Compound 88, 4-amino-1-((2R,4S,5R)-5-(bromomethyl)-4-hydroxy-5-(hydroxymethyl)tetrahydrofuran-2-yl)-5-fluoropyrimidin-2(1H)-one], ≤ 50 nM; in that of `[N-]=[N+]=N[C@]1(CO)O[C@@H](c2ccc3c(N)ncnn23)C[C@@H]1O` [Compound 92, (2R,3S,5R)-5-(4-aminopyrrolo[2,1-f][1,2,4]triazin-7-yl)-2-azido-2-(hydroxymethyl)tetrahydrofuran-3-ol], ≤ 50 nM.
On to `C[C@]1(CO)O[C@@H](n2ccc(N)nc2=O)C[C@@H]1O` [Compound 106, 4-amino-1-((2R,4S,5R)-4-hydroxy-5-(hydroxymethyl)-5-methyltetrahydrofuran-2-yl)pyrimidin-2(1H)-one], for which the IC50 was ≤ 50 nM.
On the same count and under the same terms, in the case of `C#C[C@]1(CO)O[C@@H](n2cc(F)c(N)nc2=O)C[C@@H]1O` [Compound 107, 4-amino-1-((2R,4S,5R)-5-ethynyl-4-hydroxy-5-(hydroxymethyl)tetrahydrofuran-2-yl)-5-fluoropyrimidin-2(1H)-one] it was ≤ 50 nM.
In turn, `[N-]=[N+]=N[C@]1(CO)O[C@@H](n2cnc3c(=O)[nH]c(N)nc32)C[C@@H]1O` [Compound 108, 2-amino-9-((2R,4S,5R)-5-azido-4-hydroxy-5-(hydroxymethyl)tetrahydrofuran-2-yl)-1,9-dihydro-6H-purin-6-one] gave an IC50 of 50 to 100 nM.
Take `C=C[C@]1(CO)O[C@@H](n2cnc3c(N)nc(F)nc32)C[C@@H]1O` [Compound 109, (2R,3S,5R)-5-(6-amino-2-fluoro-9H-purin-9-yl)-2-(hydroxymethyl)-2-vinyltetrahydrofuran-3-ol]: the IC50 was ≤ 50 nM.
The same measure, in the same setting: in the case of `Nc1ccn([C@H]2C[C@H](O)[C@](CO)(C(F)F)O2)c(=O)n1` [Compound 110, 4-amino-1-((2R,4S,5R)-5-(difluoromethyl)-4-hydroxy-5-(hydroxymethyl)-tetrahydrofuran-2-yl)pyrimidin-2(1H)-one] it was 250 to 1000 nM; in that of `Nc1ccn([C@@H]2O[C@H](CO)[C@@H](O)C2(F)F)c(=O)n1` [Compound 111, 4-amino-1-((2R,4R,5R)-3,3-difluoro-4-hydroxy-5-(hydroxymethyl)tetrahydrofuran-2-yl)pyrimidin-2(1H)-one], ≤ 50 nM; in that of `C#C[C@]1(CO)O[C@@H](n2cc(F)c(N)nc2=O)[C@@H](F)[C@@H]1O` [Compound 112, 4-amino-1-((2R,3S,4R,5R)-5-ethynyl-3-fluoro-4-hydroxy-5-(hydroxymethyl)tetrahydrofuran-2-yl)-5-fluoropyrimidin-2(1H)-one], ≤ 50 nM.
On the same count and under the same terms, in the case of `Nc1ccn([C@@H]2O[C@@](CO)(CF)[C@@H](O)[C@@H]2F)c(=O)n1` [Compound 113, 4-amino-1-((2R,3S,4R,5R)-3-fluoro-5-(fluoromethyl)-4-hydroxy-5-(hydroxymethyl)-tetrahydrofuran-2-yl)pyrimidin-2(1H)-one] it was 50 to 100 nM.
On the same count and under the same terms, under `Nc1ccn([C@@H]2O[C@@](CO)(CCl)[C@@H](O)[C@@H]2O)c(=O)n1` [Compound 114, 4-amino-1-((2R,3S,4S,5R)-5-(chloromethyl)-3,4-dihydroxy-5-(hydroxymethyl)tetrahydrofuran-2-yl)pyrimidin-2(1H)-one] stands 100 to 250 nM.
Consider `CC[C@]1(CO)O[C@@H](n2cnc3c(O)nc(N)nc32)C[C@@H]1O` [Compound 115, 2-amino-9-((2R,4S,5R)-5-ethyl-4-hydroxy-5-(hydroxymethyl)tetrahydrofuran-2-yl)-1,9-dihydro-6H-purin-6-one], for which the half-inhibitory concentration (IC50) is ≤ 50 nM.
Regarding `C#C[C@]1(CO)O[C@@H](n2cc(F)c(N)nc2=O)[C@@H](O)[C@@H]1O` [Compound 116, 4-amino-1-((2R,3S,4S,5R)-5-ethynyl-3,4-dihydroxy-5-(hydroxymethyl)tetrahydrofuran-2-yl)-5-fluoropyrimidin-2(1H)-one], the IC50 lay within 100 to 250 nM.

The same assay, now with this note: HeLa L1 artificial-intron reporter cells, doxycycline 500 ng/mL, 72 h, numeric bounds.
`Nc1nc(=O)n([C@H]2C[C@H](O)[C@](CO)(CCl)O2)cc1C(F)(F)F` [Compound 71, 4-amino-1-((2R,4S,5R)-5-(chloromethyl)-4-hydroxy-5-(hydroxymethyl)tetrahydrofuran-2-yl)-5-(trifluoromethyl)pyrimidin-2(1H)-one]: the IC50 was > 30000 nM.
Still for that read-out and setting: in the case of `Nc1ncnn2c([C@H]3C[C@H](O)[C@](CO)(CF)O3)ccc12` [Compound 79, (2R,3S,5R)-5-(4-aminopyrrolo[2,1-f] [1,2,4]triazin-7-yl)-2-(fluoromethyl)-2-(hydroxymethyl)tetrahydrofuran-3-ol] it was > 30000 nM; in that of `Nc1nc2c(ncn2[C@@H]2O[C@@](CO)(CCl)[C@@H](O)[C@@H]2O)c(=O)[nH]1` [Compound 94, 2-amino-9-[(2R,3S,4S,5R)-5-(chloromethyl)-3,4-dihydroxy-5-(hydroxymethyl)oxolan-2-yl]-1H-purin-6-one], > 30000 nM; in that of `Nc1nc(=O)n([C@@H]2O[C@@](CO)(C(F)(F)F)[C@@H](O)[C@@H]2O)cc1F` [Compound 95, 4-amino-1-((2R,3S,4S,5R)-3,4-dihydroxy-5-(hydroxymethyl)-5-(trifluoromethyl)tetrahydrofuran-2-yl)-5-fluoropyrimidin-2(1H)-one], > 30000 nM.
